Laboratory results published in patent US20230346717A1, “IDENTIFICATION AND USE OF COMPOUNDS IN THE TREATMENT OR PREVENTION OF SEVERE ACUTE RESPIRATORY SYNDROME CORONAVIRUS 2” (priority 2020, published 2023).
Where a name gives a salt, the structure may show the parent alone. Read-outs that look alike come from different tables or passages of the source.

Legend:
Format in all cases: cell-based, human
[1] = system: CTSL; conditions: ARPE-19/HPV-16 cells, 10 μM drug, 24 hours
Text: Each drug group profile was created using a novel Weighted Influence Model, Rank of Ranks (WIMRR) method which underscores the rank of each probe set across the entire gene expression profile rather than the specific change in expression level. WIMRR takes the average rank of each probe set across all of the members of the group and then re-ranks the probe sets from smallest average rank to largest average rank. A gene-set enrichment metric based on the Kolmogorov-Smirnov (KS) statistic.
Applicant analyzed expression profile of CTSL across all 466 drugs tested. In order to find positive hits and selected only those results that caused decrease of CTSL expression by at least 33% (1.5-fold down).

[2] = system: CTSH; assay: Gene expression assay, lysosome gene CTSH; conditions: probe 202295_s_at; ARPE-19/HPV-16, 10 μM, 24 h
Text: (§1) A drug screen was used to test agents having the potential to treat or prevent SARS-CoV-2 infection. The retinal pigment epithelia cell line, ARPE-19/HPV-16, was chosen to establish a database of drug profiles because of its non-cancerous, human origin, with a normal karyotype. ARPE-19/HPV-16 can be easily grown as monolayer in 96-well plates and expresses a variety of well known, neuronal, cell surface receptors that include the dopamine receptor D2, the serotonin receptors 1A, 2A, and 2C, the muscarinic receptor M3, and the histamine receptor H1.
(§2) Cell lines were propagated according to supplier's specifications (ATCC Manassas, VA). Compounds were obtained from Sigma (St. Louis, MO) or Vanda Pharmaceuticals (Washington, DC). Cells were aliquoted on 96-well plates (˜2×10^5 cells/well) and incubated for 24 hours prior to providing fresh media with a drug, or the drug vehicle (water, dimethyl sulfoxide, ethanol, methanol, or phosphate-buffered saline solution). Drugs were diluted 1000-fold in buffered Advanced D-MEM/F-12 culture medium (Invitrogen, Carlsbad, CA) containing nonessential amino acids and 110 mg/L sodium pyruvate. […]
(§3) Cells were harvested 24 hours after treatment and RNA was extracted using the RNeasy 96 protocol (Qiagen, Valencia, CA). […] A total of 708 microarrays were analyzed including 74 for 18 antipsychotics, 499 for 448 other compounds, and 135 for vehicle controls. […]

[3] = system: GALC; assay: Gene expression assay, lysosome gene GALC; conditions: probe 204417_at; ARPE-19/HPV-16, 10 μM, 24 h
Text: as §1, §2, §3

[4] = system: RNASET2; assay: Gene expression assay, lysosome gene RNASET2; conditions: probe 217983_s_at; ARPE-19/HPV-16, 10 μM, 24 h
Text: as §1, §2, §3

[5] = system: SCARB2; assay: Gene expression assay, lysosome gene SCARB2; conditions: probe 201647_s_at; ARPE-19/HPV-16, 10 μM, 24 h
Text: as §1, §2, §3

[6] = system: AGA; conditions: ARPE-19/HPV-16, 10 μM, 24 h
[7] = system: MAR3; assay: Gene expression assay, lysosome gene MAR3; conditions: probe 213256_at; ARPE-19/HPV-16, 10 μM, 24 h
Text: as §1, §2, §3

[8] = system: PCYOX1; assay: Gene expression assay, lysosome gene PCYOX1; conditions: probe 203803_at; ARPE-19/HPV-16, 10 μM, 24 h
Text: as §1, §2, §3

[9] = system: CPQ; assay: Gene expression assay, lysosome gene CPQ; conditions: ARPE-19/HPV-16, 10 μM, 24 h
Text: as §1
Cell lines were propagated according to supplier's specifications (ATCC Manassas, VA). Compounds were obtained from Sigma (St. Louis, MO) or Vanda Pharmaceuticals (Washington, DC). Cells were aliquoted on 96-well plates (˜2×10^5 cells/well) and incubated for 24 hours prior to providing fresh media with a drug, or the drug vehicle (water, dimethyl sulfoxide, ethanol, methanol, or phosphate-buffered saline solution). Drugs were diluted 1000-fold in buffered Advanced D-MEM/F-12 culture medium (Invitrogen, Carlsbad, CA) containing nonessential amino acids and 110 mg/L sodium pyruvate. In these conditions, no significant changes of pH were expected, which was confirmed by the monitoring of the pH indicator present in the medium.
A final 10 μM drug concentration was chosen because it is believed to fit in the range of physiological relevance. Microscopic inspection of each well was conducted at the end of the treatment to discard any samples where cells had morphological changes consistent with apoptosis. It was also verified that the drug had not precipitated in the culture medium.
Cells were harvested 24 hours after treatment and RNA was extracted using the RNeasy 96 protocol (Qiagen, Valencia, CA). Gene expression for 22,238 probe sets of 12,490 genes was generated with U133A2.0 microarrays following the manufacturer's instructions (Affymetrix, Santa Clara, CA). Drugs were profiled in duplicate or triplicate, with multiple vehicle controls on each plate. A total of 708 microarrays were analyzed including 74 for 18 antipsychotics, 499 for 448 other compounds, and 135 for vehicle controls.
The raw scan data were first converted to average difference values using MAS 5.0 (Affymetrix). The average difference values of both treatment and control data were set to a minimum threshold of 50 if below 50. For each treatment instance, all probe sets were then ranked based on their amplitude, or level of expression relative to the vehicle control (or average of controls when more than one was used). Amplitude was defined as the ratio of expression (t−v)/[(t+v)/2] where t corresponds to treatment instance and v to vehicle instance. […]

[10] = system: steroid sulfatase (microsomal); assay: Gene expression assay, lysosome gene steroid sulfatase (microsomal); conditions: probe 203767_s_at; ARPE-19/HPV-16, 10 μM, 24 h
Text: as §1, §2, §3

[11] = system: LAMP1; assay: Gene expression assay, lysosome gene LAMP1; conditions: probe 201551_s_at; ARPE-19/HPV-16, 10 μM, 24 h
Text: as §1, §2, §3

[12] = system: LGMN; assay: Gene expression assay, lysosome gene LGMN; conditions: probe 201212_at; ARPE-19/HPV-16, 10 μM, 24 h
Text: as §1, §2, §3

[13] = system: CTBS; assay: Gene expression assay, lysosome gene CTBS; conditions: probe 218924_s_at; ARPE-19/HPV-16, 10 μM, 24 h
Text: as §1, §2, §3

[14] = system: RAB38; assay: Gene expression assay, lysosome gene RAB38; conditions: probe 219412_at; ARPE-19/HPV-16, 10 μM, 24 h
Text: as §1, §2, §3

[15] = system: N-acetyl-6-sulfatase; assay: Gene expression assay, lysosome gene N-acetyl-6-sulfatase; conditions: probe 212334_at; ARPE-19/HPV-16, 10 μM, 24 h
Text: as §1, §2, §3

[16] = system: BCL10; assay: Gene expression assay, lysosome gene BCL10; conditions: probe 205263_at; ARPE-19/HPV-16, 10 μM, 24 h
Text: as §1, §2, §3

[17] = system: lysosome pathway genes; assay: Enrichment analysis of genes downregulated by amantadine (top 500 differentially expressed probes); conditions: ARPE-19/HPV-16, 10 μM, 24 h
Text: as §1, §2, §3

SMILES: NC12CC3CC(CC(C3)C1)C2 [Amantadine Hydrochloride]
- log2(treated) CTSL [1]: 9.62 log2
- log2 difference (CTSL, treated vs control) [1]: −0.70 log2
- avg_tx (log2) CTSH [2]: 9.62 log2
- diff (log2) CTSH [2]: −2.51 log2
- avg_tx (log2) GALC [3]: 6.58 log2
- diff (log2) GALC [3]: −2.06 log2
- avg_tx (log2) RNASET2 [4]: 8 log2
- diff (log2) RNASET2 [4]: −1.81 log2
- avg_tx (log2) SCARB2 [5]: 6.97 log2
- diff (log2) SCARB2 [5]: −1.63 log2
- avg_tx (log2) AGA ([6]; probe 204332_s_at): 9.18 log2
- diff (log2) AGA ([6]; probe 204332_s_at): −1.39 log2
- avg_tx (log2) AGA ([6]; probe 204333_s_at): 6.57 log2
- diff (log2) AGA ([6]; probe 204333_s_at): −1.6 log2
- avg_tx (log2) AGA ([6]; probe 216064_s_at): 8.12 log2
- diff (log2) AGA ([6]; probe 216064_s_at): −1.38 log2
- avg_tx (log2) MAR3 [7]: 5.55 log2
- diff (log2) MAR3 [7]: −1.57 log2
- avg_tx (log2) PCYOX1 [8]: 7.15 log2
- diff (log2) PCYOX1 [8]: −1.57 log2
- avg_tx (log2) CPQ ([9]; probe 203501_at): 6.41 log2
- diff (log2) CPQ ([9]; probe 203501_at): −1.55 log2
- avg_tx (log2) CPQ ([9]; probe 208454_s_at): 7.3 log2
- diff (log2) CPQ ([9]; probe 208454_s_at): −1.34 log2
- avg_tx (log2) steroid sulfatase (microsomal) [10]: 5.55 log2
- diff (log2) steroid sulfatase (microsomal) [10]: −1.47 log2
- avg_tx (log2) LAMP1 [11]: 7.87 log2
- diff (log2) LAMP1 [11]: −1.4 log2
- avg_tx (log2) LGMN [12]: 8.33 log2
- diff (log2) LGMN [12]: −1.35 log2
- avg_tx (log2) CTBS [13]: 6.59 log2
- diff (log2) CTBS [13]: −1.32 log2
- avg_tx (log2) RAB38 [14]: 6.51 log2
- diff (log2) RAB38 [14]: −1.3 log2
- avg_tx (log2) N-acetyl-6-sulfatase [15]: 9.71 log2
- diff (log2) N-acetyl-6-sulfatase [15]: −1.27 log2
- avg_tx (log2) BCL10 [16]: 7.44 log2
- diff (log2) BCL10 [16]: −1.25 log2
- expression reduction of the top 500 differentially expressed probes (383 genes) [17]: at least 50%
